From patent publication US7456152B2, “Peptide inhibitors of thrombin as potent anticoagulants” (priority 2004, dated 2008) come the findings set out here.

In general, IC50 refers to the point on the concentration scale where inhibition reaches its midpoint. A lower IC50 goes with greater potency.

This test deals with T1, human α-thrombin (Homo sapiens, UniProt P00734).
T1 construct: Bovine and human α-thrombins were supplied by Haematologic Technologies Inc (VT, USA); cleaved off efficiently by thrombin to generate the free N-terminus of the A-chain of human thrombin; purchased Haematologic Technologies Inc (VT, USA)
Briefly: Clotting assay: fibrinogen clotting by human thrombin, concentration doubling the clotting time (DCT) = IC50. The class given is biochemical. As for the experimental part:
The clotting assays were carried out by use of the protocols described previously (DiMaio, J., Gibbs, B., Munn, D., Lefebvre, J., Ni, F., and Konishi, Y. (1990) J. Biol. Chem. 265, 21698-21703; and Witting, J. I., Bourdon, P., Brezniak, D. V., Maraganore, J. M., and Fenton, J. W. (1992) Biochem. J. 283 (Pt 3), 737-743) The assay employs bovine plasma fibrinogen dissolved at 0.1% in 50 mM Tris-Cl, 100 mM NaCl, 0.1% PEG-8000 at pH 7.6 (i.e. the clotting buffer). Each assay mixture contained a certain concentration of the peptide, and the reaction was started by the addition of human thrombin to a final concentration of 0.1 NIH unit/ml. Optical absorbance of the assay mixtures was measured at 420 nm and 37° C. using the Spectramax™ plate reader. The onset clotting time was determined as an intersection of the baseline and the initial slope of the O.D. change as a result of fibrin clot formation. The concentration of a peptide needed to double the clotting time (DCT) was defined as IC50. Peptide concentrations were determined by comparing the O.D.280 values of peptide stock solutions in the clotting buffer (vide supra) with the predicted extinction coefficient for each peptide (Gill, S. C. and von Hippel, P. H. (1989) Anal. Biochem. 182, 319-326).
The peptide concentration for doubling the clotting time (DCT) was defined as the IC50 value.

As for `CC[C@H](C)[C@H](NC(=O)[C@H](CCC(=O)O)NC(=O)[C@H](CCC(=O)O)NC(=O)[C@H](Cc1ccccc1)NC(=O)[C@H](CC(=O)O)NC(=O)CNC(=O)[C@H](CC(=O)O)NC(=O)[C@H](CC(N)=O)NC(=O)[C@H](Cc1c[nH]cn1)NC(=O)[C@H](CC(=O)O)NC(=O)[C@H](CCC(N)=O)NC(=O)[C@@H]1CCCN1C(=O)[C@H](CCCNC(=N)N)NC(=O)[C@@H]1CCCN1C(=O)[C@H](CC(=O)O)NC(=O)[C@@H](N)Cc1ccccc1)C(=O)N1CCC[C@H]1C(=O)N[C@@H](CCC(=O)O)C(=O)N[C@@H](CCC(=O)O)C(=O)N[C@@H](Cc1ccc(O)cc1)C(=O)N[C@@H](CC(C)C)C(=O)N[C@@H](CCC(N)=O)C(=O)O` [FD22-D], the IC50 came to 53 ± 2 nM. Take `CC[C@H](C)[C@H](NC(=O)[C@H](CCC(=O)O)NC(=O)[C@H](CCC(=O)O)NC(=O)[C@H](Cc1ccccc1)NC(=O)[C@H](CC(=O)O)NC(=O)CNC(=O)[C@H](CC(=O)O)NC(=O)[C@H](CC(N)=O)NC(=O)[C@H](Cc1c[nH]cn1)NC(=O)[C@H](CC(=O)O)NC(=O)[C@H](CCC(N)=O)NC(=O)[C@@H]1CCCN1C(=O)[C@H](CCCNC(=N)N)NC(=O)[C@@H]1CCCN1C(=O)[C@H](CCC(=O)O)NC(=O)[C@@H](N)Cc1ccccc1)C(=O)N1CCC[C@H]1C(=O)N[C@@H](CCC(=O)O)C(=O)N[C@@H](CCC(=O)O)C(=O)N[C@@H](Cc1ccc(O)cc1)C(=O)N[C@@H](CC(C)C)C(=O)N[C@@H](CCC(N)=O)C(=O)O` [FE22-D]: the IC50 was greater than 125 nM. The value for `CC[C@H](C)[C@H](NC(=O)[C@H](CCC(=O)O)NC(=O)[C@H](CCC(=O)O)NC(=O)[C@H](Cc1ccccc1)NC(=O)[C@H](CC(=O)O)NC(=O)CNC(=O)[C@H](CC(=O)O)NC(=O)[C@H](CC(N)=O)NC(=O)[C@H](Cc1c[nH]cn1)NC(=O)[C@H](CO)NC(=O)[C@H](CCC(N)=O)NC(=O)[C@@H]1CCCN1C(=O)[C@H](CCCNC(=N)N)NC(=O)[C@@H]1CCCN1C(=O)[C@H](CCC(=O)O)NC(=O)[C@@H](N)Cc1ccccc1)C(=O)N1CCC[C@H]1C(=O)N[C@@H](CCC(=O)O)C(=O)N[C@@H](CCC(=O)O)C(=O)N[C@@H](Cc1ccc(O)cc1)C(=O)N[C@@H](CC(C)C)C(=O)N[C@@H](CCC(N)=O)C(=O)O` [FE22] was 80 nM; that for `CC[C@H](C)[C@H](NC(=O)[C@H](CCC(=O)O)NC(=O)[C@H](CCC(=O)O)NC(=O)[C@H](Cc1ccccc1)NC(=O)[C@H](CC(=O)O)NC(=O)CNC(=O)[C@H](CC(=O)O)NC(=O)[C@H](CC(N)=O)NC(=O)[C@H](Cc1c[nH]cn1)NC(=O)[C@H](CO)NC(=O)[C@H](CCC(N)=O)NC(=O)[C@@H]1CCCN1C(=O)[C@H](CCCNC(=N)N)NC(=O)[C@@H]1CCCN1C(=O)[C@H](Cc1c[nH]cn1)NC(=O)[C@@H](N)Cc1ccccc1)C(=O)N1CCC[C@H]1C(=O)N[C@@H](CCC(=O)O)C(=O)N[C@@H](CCC(=O)O)C(=O)N[C@@H](Cc1ccc(O)cc1)C(=O)N[C@@H](CC(C)C)C(=O)N[C@@H](CCC(N)=O)C(=O)O` [FH22] was greater than 150 nM. The compound `CC[C@H](C)[C@H](NC(=O)[C@H](CCC(=O)O)NC(=O)[C@H](CCC(=O)O)NC(=O)[C@H](Cc1ccccc1)NC(=O)[C@H](CC(=O)O)NC(=O)CNC(=O)[C@H](CC(=O)O)NC(=O)[C@H](CC(N)=O)NC(=O)[C@H](Cc1c[nH]cn1)NC(=O)[C@H](CCSC)NC(=O)[C@H](CCC(N)=O)NC(=O)[C@@H]1CCCN1C(=O)[C@H](CCCNC(=N)N)NC(=O)[C@@H]1CCCN1C(=O)[C@H](CCC(N)=O)NC(=O)[C@@H](N)Cc1ccccc1)C(=O)N1CCC[C@H]1C(=O)N[C@@H](CCC(=O)O)C(=O)N[C@@H](CCC(=O)O)C(=O)N[C@@H](Cc1ccc(O)cc1)C(=O)N[C@@H](CC(C)C)C(=O)N[C@@H](CCC(N)=O)C(=O)O` [FQ22-M] yielded an IC50 of no less than 10 nM.
